Data on two compounds can be found in patent publication US20200255884A1, “METHOD OF DETECTION OF DNA END(S) AND ITS USE” (INTODNA SP. Z O.O., priority 2017, published 2020).

For experiment [1], the system named is HeLa 21-4 cells. Nature of the experiment: DNA ends detection in fixed HeLa cells subjected to damaging agents (H2O2, Tpt), Procedure 1. The format is cell-based. The note with it: 30 min at 37 °C, H2O2 4 mM, Tpt 20 μM. How it is done: Procedure: • 1. Pre-preparation (optional): • Incubation of live cells with 0.5-10 mM Tris (5 min-1 h at room temperature (RT)), cells should be monitored for morphological abnormalities. • 2. Fixation and permeabilization: • a. Incubation with 1%-4% formaldehyde solution, 10-15 min, 4° C. (optional) • b. Incubation with an […] detergent (e.g. Triton X-100 (0.25-3%) 10 min-1 h, RT. (optional) • c. Incubation in 70% ethanol in water, 1 h minimum but preferred 12-18 h, −20° C., sample should be stable for several months. (optional but most preferred) • 3. Pre-blocking (optional): • a. Wash (PBS 1×5 min) • b. Streptavidin solution—incubation performed on a droplet, 30 min, RT • c. Wash (PBS 3×5 min) • d. Biotin solution—incubation performed on a droplet, 30 min, RT • e. Wash (PBS 3×5 min) • 4. Increasing accessibility of DNA ends: • Incubation with 0.5-10 mM EDTA in water, 10 min-1 h, RT. • 5. Incorporation procedure: • Incorporation of unmodified and modified nucleotides (e.g. BrdU) using terminal deoxynucleotidyl transferase: • a. incubation is performed on a droplet in a humid chamber • b. samples are rinsed in wash buffers • 6. Blocking: • Incubation with 1-5% BSA solution in PBS (from 1 h to overnight in 4° C., RT). • 7. Incubation with primary antibodies—performed on a droplet in a humid chamber: • a. primary antibodies type 1 (e.g. mouse monoclonal against BrdU), preferred dilution 1:100 in 1-5% BSA, 1 h, RT • b. wash (PBS 3×5 min) • c. primary antibodies type 2 (e.g. rabbit polyclonal against BrdU), preferred dilution 1:100 in 1-5% BSA, 1 h, RT • d. wash (PBS 3×5 min) • 8. PLA procedure: • a. incubation with PLA Probes diluted in 1% BSA (37° C., 60 min, reaction on a droplet, in a humid chamber) in 40 μl of the reaction mixture per one coverslip: • 8 μl of PLA Probe MINUS stock (e.g. anti-mouse) • 8 μl of PLA Probe PLUS stock (e.g. anti-rabbit) • 24 μl of 1% BSA • b. wash samples with Wash Buffer A (2×5 min) • c. ligation—incubation (37° C., 30 min, reaction on a droplet, in a humid chamber) in 40 μl of the reaction mixture per one coverslip: • 8 μl of 5× Ligation stock (Sigma, Duolink, DUO82009), • 31 μl of ultrapure, RNAse/DNAse free, distilled water, • 1 μl of Ligase (1 U/μl) (Sigma, Duolink, DUO82027 or DUO82029) • d. wash samples with Wash Buffer A (2×2 min) • e. amplification—incubation (37° C., 100 min, reaction performed on a droplet, in a humid chamber) in 40 μl of the reaction mixture per one coverslip: • 8 μl of 5× Amplification stock (Sigma, Duolink, DUO82060 or DUO82011), • 31.5 μl of ultrapure, RNAse/DNAse free, distilled water, • 0.5 μl of Polymerase (10 U/μl) (Sigma, Duolink, DUO82028 or DUO82030) • 9. Imaging of samples in PBS using a fluorescence microscope. […]

In experiment [2] the test system is HeLa 21-4 cells. Nature of the experiment: Detection of DNA breaks induced by photodynamic effect (ethidium bromide + 488 nm laser) in HeLa cells, Procedure 1. Format: cell-based. The conditions noted are these: ethidium bromide (500 μM) 10 min, dose 9 mJ. How it is done: In this experiment the DNA breaks were induced by treating live cells (HeLa 21-4 cells, obtained from prof. P.R. Cook, Oxford University) with ethidium bromide (500 μM) for 10 min and then parking the laser beam (488 nm) at a chosen place inside the nucleus (dose: 9 mJ) 2 minutes after illumination step 2 of Procedure 1 was performed. The aim of the experiment was to directly detect DNA break (s) inflicted at a specific area of the cell nucleus by a photodynamic effect.
HeLa 21-4 cells were first seeded on 18-mm coverslips and cultured for 3 days in DMEM supplemented with 10% FBS. After culturing, DNA damage was induced in chosen cells, as described previously, followed by incubation in 70% ethanol in water, 15 h, −20° C. After that, increasing of accessibility of DNA ends (step 4) was performed with 10 mM EDTA in water, 1 h, RT. Incorporation of modified (BrdUTP) nucleotides (Phoenix Flow Systems) by terminal deoxynucleotidyl transferase was performed according to the kit supplier's instructions (APO-BRDU kit, Phoenix Flow Systems). The cells were then incubated with 1% BSA solution in PBS (overnight in 4° C.). The incubation with primary antibodies type 1 and 2 according to step 7 of Procedure 2 were performed using mouse monoclonal anti-BrdU (Abcam, ab8039) and rabbit polyclonal anti-BrdU (Abcam, ab152095) (1:100 in 1% BSA), respectively. […]

Turning to `CC[C@@]1(O)C(=O)OCc2c1cc1n(c2=O)Cc2cc3c(CN(C)C)c(O)ccc3nc2-1` [Tpt, topotecan], in the experiment on HeLa 21-4 cells [1] (untreated less than 5%), the “percentage of cells that show signs of heavy DNA damage (apoptotic cells) in the population” value is “approximately 18%”. In addition, the “average number of detectable regions of incorporation of BrdU (free ends of DNA) per cell” value with HeLa 21-4 cells [1] (± standard error of the mean) worked out at 16.39±4.92.
Turning to `CC[n+]1c(-c2ccccc2)c2cc(N)ccc2c2ccc(N)cc21` [ethidium bromide], the “damaged nuclei with fluorescence focus visible at the illuminated place or in its direct proximity” value in the experiment on HeLa 21-4 cells [2] is reported as 90%.
